Laboratory results from ChEMBL document CHEMBL1201862, “PubChem BioAssay data set” (2004).
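All cell lines were grown in 96-well plates and treated with compound for 48 hours. Abbreviation: GI50, concentration required for 50% inhibition of growth.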 Active and inactive are the calls of the source. No stated cut-off is given here; in the data, active = GI50 up to about 1.1 µM and inactive = higher.

How the values were obtained:
Experiment in all cases: growth of human tumour cells (NCI), 48 h
[1] = test system: RXF 631
[2] = test system: DLD-1
[3] = test system: KM-20L2
[4] = test system: HOP-18
[5] = test system: SNB-78
[6] = test system: M19-MEL
[7] = test system: LXFL 529
[8] = test system: DMS-114
[9] = test system: XF498

Measured: GI50

O=C(CC(O)(c1ccccc1)c1ccc(Cl)cc1)NC(=O)c1ccccc1O (stereo unspecified)
inactive: [1] 15.6 µM | [2] 11.8 µM | [3] 14.8 µM | [4] 2.39 µM | [5] 27.1 µM | [6] 18.6 µM | [7] 4.35 µM | [8] 6.04 µM

O=C(Cc1nc2sc3c(c2c(=O)[nH]1)CCCC3)Nc1ccccc1
inactive: [9] > 100 µM | [3] > 100 µM | [4] > 100 µM | [6] > 100 µM | [7] > 100 µM | [8] > 100 µM

Cn1nc(-c2cccc(-c3nn(C)/c(=N\CCO)s3)n2)s/c1=N/CCO
inactive: [2] > 100 µM | [3] > 100 µM | [4] > 100 µM | [5] 41.6 µM | [6] > 100 µM | [7] > 100 µM | [8] > 100 µM

Cc1cc(C)c2c(c1)Nc1ccccc1P2c1ccccc1 (stereo unspecified)
inactive: [9] 4.86 µM | [2] 23.5 µM | [3] 30.6 µM | [5] 41.8 µM | [7] 29.2 µM | [8] > 100 µM

CCCCCCCCCCC(O)C1CCC(C(O)CCC(O)C2CCC(CCCCCCC[C@H](O)CC3=C[C@@H](C)OC3=O)O2)O1 (stereo partly specified)
inactive: [1] > 46.2 µM | [9] 28.2 µM | [2] 54.8 µM | [3] > 100 µM | [4] > 100 µM | [5] 14.9 µM | [6] > 76.4 µM | [7] 14.6 µM

COC(=O)n1c(CBr)c(Br)c2ccccc21
inactive: [2] 41.5 µM | [3] > 100 µM | [6] 61.7 µM | [8] 36.7 µM

CCCCCCCCOCC(O)CO (stereo unspecified)
inactive: [1] > 100 µM | [9] 45.9 µM | [2] > 100 µM | [3] > 100 µM | [4] > 100 µM | [5] > 100 µM | [6] > 100 µM | [7] > 100 µM | [8] > 100 µM

NCCCCC(=O)c1cccnc1
inactive: [9] > 100 µM | [2] > 100 µM | [3] > 100 µM | [4] > 100 µM | [5] > 100 µM | [6] > 100 µM | [7] > 100 µM | [8] > 100 µM

O=c1c(Cl)c(Cl)cnn1CCc1ccncc1
inactive: [9] 15.5 µM | [2] 14.6 µM | [3] 18.9 µM | [4] 20 µM | [5] 25.1 µM | [6] 15.5 µM | [7] 15.8 µM | [8] 14 µM

C=CCCCn1ccc2ccccc21
inactive: [1] > 100 µM | [9] > 100 µM | [2] > 100 µM | [3] > 100 µM | [4] > 100 µM | [6] > 100 µM | [7] > 100 µM | [8] > 100 µM

CC(C)(CN1CCCCC1)C(=O)/C=C/c1ccc(Cl)cc1
inactive: [1] 9.29 µM | [2] 4.49 µM | [3] 2.36 µM | [4] 11.1 µM | [5] 3.24 µM | [6] 6.76 µM | [7] 2.54 µM | [8] 3.65 µM

CC(=O)Oc1cccc2c1C(=O)C(Br)(Br)CCC2
inactive: [1] 17.4 µM | [9] 11.2 µM | [2] 10.1 µM | [3] 8.05 µM | [4] 18.2 µM | [5] 17.3 µM | [6] 7.28 µM | [7] 6.55 µM | [8] 2.54 µM

CCCCCCCCCCCCCCCCCC(=O)OCC(C[As](=O)(O)O)OC(=O)CCCCCCCCCCCCCCCCC (stereo unspecified)
inactive: [1] 36.1 µM | [9] 23 µM | [2] 40 µM | [3] > 100 µM | [4] > 100 µM | [5] 20.4 µM | [6] > 100 µM | [7] 72.9 µM | [8] 17.6 µM

COC1=NN2C(OC)(c3ccccc3)c3c(-c4ccccc4)sc(-c4ccccc4)c3C2(c2ccccc2)S1 (stereo unspecified)
inactive: [1] > 100 µM | [9] > 100 µM | [2] > 100 µM | [5] > 100 µM | [7] > 100 µM

CC1O[C@@H]2CCCCC(=O)[C@]2(C)[C@H]1C (stereo partly specified)
inactive: [1] > 100 µM | [9] > 100 µM | [2] > 100 µM | [3] > 100 µM | [4] > 100 µM | [5] > 100 µM | [6] > 100 µM | [7] > 100 µM | [8] > 100 µM

CN(C)CCC1(C2=CCCC2)CC/C(=C\c2ccc(Cl)cc2)C1=O (stereo unspecified)
inactive: [1] 8.69 µM | [9] 6.11 µM | [2] 7.29 µM | [3] 2.43 µM | [4] 11.9 µM | [5] 9.59 µM | [6] 5.22 µM | [7] 8.95 µM | [8] 6.27 µM
